Assay results: patent US20230099344A1, “COMPOUNDS AND METHODS FOR THE TARGETED DEGRADATION OF IRAK-4” (Arvinas Operations, Inc., priority 2021, published 2023)

Legend:
Type in all cases: cell-based
[1] = system: IL6; assay: R848 stimulated IL6 inhibition assay in PBMC; conditions: human PBMCs, R848 stimulation, compound overnight, IL6 by MSD after 24 hrs; for Dmax: Homo sapiens, 24 h, read-out: R848 stim IL6 inhibition Dmax; for IC50: read-out: R848 stim IL6 inhibition IC50
Method: (§1) IL-1β, LPS, or R848 Stimulated IL6 Inhibition and IL-1β Stimulated IL8 Inhibition Assay
(§2) Human PBMC cells were seeded at 2.0×10^6 cells/mL, treated with compound overnight, and dosed with the EC50 concentration of each stimulant (either IL-1B. LPS, or R848) was determined for each donor. After 24 hrs, media was collected and analyzed by MSD for IL6 and/or IL8 levels.

[2] = biological target: T1, IRAK-4 (Homo sapiens, UniProt Q9NWZ3); assay: IRAK-4 ELISA, PBMC degradation; parameters: endogenous in cells; host or cells: PBMC; conditions: treated overnight
T1 sequence (Q9NWZ3 1-460): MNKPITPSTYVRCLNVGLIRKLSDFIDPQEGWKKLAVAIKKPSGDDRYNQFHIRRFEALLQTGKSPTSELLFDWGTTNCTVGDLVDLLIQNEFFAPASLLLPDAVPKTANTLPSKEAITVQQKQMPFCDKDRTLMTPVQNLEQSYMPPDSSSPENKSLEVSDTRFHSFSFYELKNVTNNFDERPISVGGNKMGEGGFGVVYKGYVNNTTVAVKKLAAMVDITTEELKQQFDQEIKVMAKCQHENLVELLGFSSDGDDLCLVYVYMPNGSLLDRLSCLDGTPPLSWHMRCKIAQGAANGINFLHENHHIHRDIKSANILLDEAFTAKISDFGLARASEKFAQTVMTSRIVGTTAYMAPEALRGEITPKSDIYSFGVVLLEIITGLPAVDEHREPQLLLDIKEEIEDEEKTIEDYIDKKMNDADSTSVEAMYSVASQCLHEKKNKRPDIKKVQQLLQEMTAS
In short: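 OCI-Ly10 cells (seeded at 1×10^6/ml) or human PBMC (seeded at 2×10^6/ml) were treated with compound on the day of seeding and incubated overnight. Lysates were then assayed for remaining IRAK-4 protein by sandwich ELISA with a matched antibody pair.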

[3] = system: IL6; assay: LPS stimulated IL6 inhibition assay in PBMC; conditions: human PBMCs, LPS stimulation, compound overnight, IL6 by MSD after 24 hrs; for Dmax: read-out: LPS Stim IL6 inhibition Dmax; for IC50: read-out: LPS stim IL6 inhibition IC50
Method: as §1, §2

SMILES | Dmax ([1]; PBMC) | IC50 ([1]; PBMC) | DC50 [2] | Dmax [2] | PBMC DC90 [2] | Dmax ([3]; Homo sapiens, PBMC, 24 h) | IC50 ([3]; Homo sapiens, PBMC, 24 h) | R848 stim IL6 inhibition Dmax [1] | IC50 [1] | LPS Stim IL6 inhibition Dmax [3] | IC50 [3]
CC(C)Oc1cc2c(cc1NC(=O)c1cnn3cccnc13)CN([C@H]1CC[C@H](N(C)CC3(F)CN(c4ccc5c(c4)C(=O)N(C4CCC(=O)NC4=O)C5=O)C3)CC1)C2=O (some centres unmarked) [Example 365] | ≥ 90% | 10 to 50 nM | 1 to 5 nM | ≥ 90% | A (A represents a DC90 value <10.0 nM) | < 70% | < 10 nM | – | – | – | –
O=C1CCC(N2C(=O)c3ccc(N4CC(F)(CN5CCC(n6cc7cc(NC(=O)c8cnn9cc(Cl)cnc89)c(OCC8CC8)cc7n6)CC5)C4)cc3C2=O)C(=O)N1 (centres unmarked) [Example 255] | ≥ 90% | 50 to 100 nM | ≥ 10 nM | ≥ 90% | D (D represents a DC90 value ≥50 nM) | 70 to 80% | 50 to 100 nM | – | – | – | –
O=C1CCC(N2C(=O)c3ccc(N4CC[C@@H](N5CCC(n6cc7cc(NC(=O)c8cnn9cccnc89)c(OCC8CC8)cc7n6)CC5)C4)cc3C2=O)C(=O)N1 (some centres unmarked) [Example 224] | ≥ 90% | 10 to 50 nM | 1 to 5 nM | 80 to 90% | B (B represents a DC90 value ≥10.0 nM and <25.0 nM) | 80 to 90% | 10 to 50 nM | – | – | – | –
O=C1CCC(N2Cc3c(ccc(N4CC(F)(CN5CCC(n6cc7cc(NC(=O)c8cnn9cccnc89)c(OCC(F)F)cc7n6)CC5)C4)c3F)C2=O)C(=O)N1 (centres unmarked) [Example 251] | 80 to 90% | 10 to 50 nM | 1 to 5 nM | 80 to 90% | A (A represents a DC90 value <10.0 nM) | < 70% | 50 to 100 nM | – | – | – | –
C=Nc1c(C(=O)Nc2cc3cn(C4CCN(CC5(F)CN(c6cccc7c6n(C)c(=O)n7C6CCC(=O)NC6=O)C5)CC4)nc3cc2C2CC2)cnn1/C=C\C (centres unmarked) [Example 389] | ≥ 90% | 10 to 50 nM | < 1 nM | 80 to 90% | A (A represents a DC90 value <10.0 nM) | ≥ 90% | ≥ 100 nM | – | – | – | –
CC(C)Oc1cc2c(cc1NC(=O)c1cnn3cccnc13)CN(C1CCN(C(C)(C)C3CCN(c4ccc5c(c4)CN(C4CCC(=O)NC4=O)C5=O)CC3)CC1)C2=O (centres unmarked) [Example 111] | ≥ 90% | 10 to 50 nM | < 1 nM | 80 to 90% | A (A represents a DC90 value <10.0 nM) | ≥ 90% | 10 to 50 nM | – | – | – | –
O=C1CCC(N2Cc3c(cccc3N3CC4(CCCN(C5CCC(n6cc7cc(NC(=O)c8cnn9cccnc89)c(OCC8CC8)cc7n6)CC5)C4)C3)C2=O)C(=O)N1 (centres unmarked) [Example 367] | ≥ 90% | 10 to 50 nM | ≥ 10 nM | 80 to 90% | D (D represents a DC90 value ≥50 nM) | 80 to 90% | 10 to 50 nM | – | – | – | –
CC(C)Oc1cc2c(cc1NC(=O)c1cnn3cccnc13)CN(C1CCN(CC3CCN(c4ccc(F)c(C(=O)NC5CCC(=O)NC5=O)c4)CC3)CC1)C2=O (centres unmarked) [Example 303] | ≥ 90% | 10 to 50 nM | 5 to 10 nM | 80 to 90% | C (C represents a DC90 value ≥25.0 nM and <50 nM) | 70 to 80% | 10 to 50 nM | – | – | – | –
CN(C1CCN(c2ccc3c(c2)C(=O)N(C2CCC(=O)NC2=O)C3=O)CC1)[C@H]1CC[C@H](n2cc3cc(NC(=O)c4cnn5cccnc45)c(OCC(F)F)cc3n2)CC1 (some centres unmarked) [Example 358] | ≥ 90% | < 10 nM | < 1 nM | < 70% | A (A represents a DC90 value <10.0 nM) | 70 to 80% | < 10 nM | – | – | – | –
C=C(CN1CCC(N2Cc3cc(NC(=O)c4cnn5cccnc45)c(OC(C)C)cc3C2=O)CC1)C1CCN(c2ccc3c(c2)C(=O)N(C2CCC(=O)NC2=O)C3=O)CC1 (centres unmarked) [Example 110] | ≥ 90% | 10 to 50 nM | 1 to 5 nM | ≥ 90% | B (B represents a DC90 value ≥10.0 nM and <25.0 nM) | 80 to 90% | 10 to 50 nM | – | – | – | –
CN1CC(Oc2cc3nn(C4CCN(CC5(F)CN(c6ccc7c(c6)C(=O)N(C6CCC(=O)NC6=O)C7=O)C5)CC4)cc3cc2NC(=O)c2cnn3cccnc23)C1 (centres unmarked) [Example 263] | ≥ 90% | 10 to 50 nM | ≥ 10 nM | ≥ 90% | A (A represents a DC90 value <10.0 nM) | < 70% | < 10 nM | – | – | – | –
O=C1CCC(N2C(=O)c3ccc(N4CCN(C[C@H]5CC[C@H](n6cc7cc(NC(=O)c8cnn9cccnc89)c(OCC(F)F)cc7n6)CC5)CC4)cc3C2=O)C(=O)N1 (some centres unmarked) [Example 430] | ≥ 90% | 10 to 50 nM | 1 to 5 nM | ≥ 90% | A (A represents a DC90 value <10.0 nM) | 70 to 80% | 10 to 50 nM | – | – | – | –
O=C1CCC(N2C(=O)c3ccc(N4CCC(CN5CCC(N6Cc7cc(NC(=O)c8cnn9cccnc89)c(N8CCN(CC(F)F)CC8)cc7C6=O)CC5)CC4)cc3C2=O)C(=O)N1 (centres unmarked) [Example 52] | 80 to 90% | 10 to 50 nM | 1 to 5 nM | ≥ 90% | A (A represents a DC90 value <10.0 nM) | 80 to 90% | 10 to 50 nM | – | – | – | –
O=C1CCC(N2C(=O)c3ccc(N4CC5(C4)CN([C@H]4CC[C@H](n6cc7cc(NC(=O)c8cnn9cccnc89)c(OCC8CC8)cc7n6)CC4)C5)cc3C2=O)C(=O)N1 (some centres unmarked) [Example 360] | ≥ 90% | < 10 nM | 1 to 5 nM | ≥ 90% | B (B represents a DC90 value ≥10.0 nM and <25.0 nM) | 80 to 90% | < 10 nM | – | – | – | –
O=C1CCC(N2C(=O)c3ccc(N4CC[C@H](O[C@H]5CC[C@@H](n6cc7cc(NC(=O)c8cnn9cccnc89)c(OCC8CC8)cc7n6)CC5)C4)cc3C2=O)C(=O)N1 (some centres unmarked) [Example 428] | – | – | 1 to 5 nM | ≥ 90% | B (B represents a DC90 value ≥10.0 nM and <25.0 nM) | – | – | A (A represents a Ymax value ≥90) | 10 to 50 nM | D (D represents a Ymax value <70) | 10 to 50 nM
CC(C)Oc1cc2c(cc1NC(=O)c1cnn3cccnc13)CN(C1CCN(CC3CCN(c4ccc5c(c4)C(=O)N(C4CCC(=O)NC4=O)C5)CC3)CC1)C2=O (centres unmarked) [Example 105] | 80 to 90% | 50 to 100 nM | ≥ 10 nM | – | D (D represents a DC90 value ≥50 nM) | 70 to 80% | ≥ 100 nM | – | – | – | –
CC(C)Oc1nc2c(cc1NC(=O)c1cnn3cccnc13)CN(C1CCN(CC3CN(c4ccc(C(=O)NC5CCC(=O)NC5=O)c(F)c4)C3)CC1)C2=O (centres unmarked) [Example 402] | 80 to 90% | 10 to 50 nM | < 1 nM | ≥ 90% | A (A represents a DC90 value <10.0 nM) | < 70% | 10 to 50 nM | – | – | – | –
O=C1CCC(N2C(=O)c3ccc(N4CCN(C[C@H]5CC[C@H](N6Cc7cc(NC(=O)c8cnn9cccnc89)c(N8CCN(CC(F)F)CC8)cc7C6=O)CC5)CC4)cc3C2=O)C(=O)N1 (some centres unmarked) [371′] | ≥ 90% | 10 to 50 nM | 1 to 5 nM | ≥ 90% | B (B represents a DC90 value ≥10.0 nM and <25.0 nM) | < 70% | 10 to 50 nM | – | – | – | –
